Test results reported in patent publication US20250339409A1, “USES OF PAN BET INHIBITORS” (VYNE THERAPEUTICS INC., priority 2021, published 2025).
Where two headings read alike, the source gives them in different places.

System: IL4, IL13, IL31, CCL17, CCL26, CCL2 gene expression in Th2 stimulated human skin
Test: Th2 stimulated human skin explants, RT-qPCR of biomarkers
Format: cell-based
Conditions: for inhibition at 0.01 µM / inhibition at 0.04 µM / inhibition at 0.16 µM / inhibition at 0.63 µM / inhibition at 2.5 µM / inhibition at 10 µM: Homo sapiens, calculated to Th2 stimulated control; for inhibition at 2.5 µM: 2.50 μM
Text: Human skin biopsy tissue was stimulated to induce a Th17 immuno-phenotype using a method derived from Feghali-Bostwick et al. Induction of a Th17 phenotype in human skin—a mimic of dermal inflammatory diseases, Methods and Protocols, 2, 45 (2019). The pharmacodynamic assay described therein involves a similar paradigm to elicit a Th2 response and is used to evaluate the therapeutic potential of the active compounds (e.g., BETi1; and
Freshly excised healthy human skin tissue from abdominoplasties is defatted, cleaned and sectioned into 7 mm biopsies. The biopsies are placed in Transwell® inserts with the epidermis apical and exposed to air and the dermis submerged in media in the basal chamber. The biopsies are pre-treated overnight at 37° C., 5% CO2 with different compounds and controls added to the media in the basal chamber.
The next day, contents of the basal chamber is replaced with fresh media containing the test compound (listed below) and a stimulation cocktail for either Th2 inflammation (proprietary of service provider cocktail) or Th17 inflammation (mix of antibodies against CD3, CD28, IL-4, IFNγ and recombinant IL-1β, IL-6, IL-21, TGF-β). The biopsies are incubated at 37° C., 5% CO2 for a further 24 hrs.
A list of all the treatments is provided below: • 1. Untreated control (for both stimulations) • 2. Th2 stimulated control • 3. Th17 stimulated control • 4. Th2+BETia at 0.01, 0.04, 0.16, 0.63, 2.50, and 10 μM • 5. Th2+BETi1 at 0.01, 0.04, 0.16, 0.63, 2.50, and 10 μM • 6. Th2+Ruxolitinib at 0.01, 0.04, 0.16, 0.63, 2.50, and 10 μM • 7. Th2+betamethasone valerate 210 μM (equivalent to 0.01%) • 8. Th17+BETia at 10 μM • 9. Th17+BETi1 at 10 μM • 10. Th17+Ruxolitinib at 10 μM • 11. Th17+betamethasone valerate 210 μM (equivalent to 0.01%)
After harvesting, the biopsies are cut in half, and one half is homogenized and used for RNA extraction by standard methods and inflammatory pathways is assessed by RT-qPCR. The ability of BETi1 or BETia to inhibit the activity of up to six biomarkers per stimulation is reported as percent activity calculated to stimulated control and fold change in gene expression calculated to untreated control with respect to Th2 (IL4, IL13, IL31, CCL17, CCL26, CCL2) and Th17 (CXCL10, IL17α, IL22, IL36γ, CCL20, SerpinB4). Statistical analysis is performed on data sets from all 3 donors combined and compares the percent inhibition of each biomarker by each treatment calculated to its respective vehicle.
qPCR values were calculated using the relative quantification approach outlined by Livak, et al (2001) (Section 9, Reference 2). The Ct values (threshold cycle) defined as the fractional cycle number at which the amount of amplified target reaches a fixed threshold, were normalised to the Ct value of an internal biomarker or ‘housekeeping gene’ (GAPDH). The higher limit of detection was set at a Ct value of 40, and any target having not reached Ct by 40 cycles was set to this value. The delta Ct values (dt(Ct)) refers to the Ct of the gene of interest minus the Ct of the internal biomarker. The ddt(Ct) is the dt(Ct) value of the gene minus the average dt(Ct) value of the untreated samples. The ddt(Ct) is converted to power by the equation; =power(2,dt(Ct)). Fold change was calculated as ratio of the power of the gene of interest divided by the average power of the untreated samples. This normalizes the untreated samplers to a value of 1. For the comparison of multiple skin donors, the stimulated samples were normalized to 100% maximum activity (such to normalize variability between different skin donors). Percent activity was calculated as the percent increase or decrease in stimulation compared to the stimulated samples set at 100% maximum activity. Percent change was calculated as: Inhibition=(100−(avg % activity/stimulated)*100). Statistical analysis was performed using One-way ANOVA with Dunnett's Multiple Comparisons (non parametric). […]

[1] = Th2 stimulated human skin explants, 10 μM, compared to untreated skin

For `Cn1cc(-c2cccc(O)c2Oc2ccccc2)c2cc[nH]c2c1=O` [BETi1], the inhibition at 0.01 µM (read-out: % Inhibition CCL17) was 22.4%, the inhibition at 0.01 µM (read-out: % Inhibition CCL26) was 31.3% and the inhibition at 0.01 µM (read-out: % Inhibition IL31) was < 0%. For the same molecule, the inhibition at 0.01 µM (read-out: % inhibition CCL2) was < 0%, the inhibition at 0.01 µM (read-out: % inhibition IL4) was 20.4% and the inhibition at 0.01 µM (read-out: % inhibition IL13) was 22.4%. The inhibition at 0.04 µM (read-out: % Inhibition CCL17) was < 0%, the inhibition at 0.04 µM (read-out: % Inhibition CCL26) was 10.9% and the inhibition at 0.04 µM (read-out: % Inhibition IL31) was < 0%. The inhibition at 0.04 µM (read-out: % inhibition CCL2) was < 0%, the inhibition at 0.04 µM (read-out: % inhibition IL4) was 51.8% and the inhibition at 0.04 µM (read-out: % inhibition IL13) was 3%. The inhibition at 0.16 µM (read-out: % Inhibition CCL26) was 15.2%, the inhibition at 0.16 µM (read-out: % Inhibition IL31) was ~74% and the inhibition at 0.16 µM (read-out: % inhibition CCL2) was 40%. The inhibition at 0.16 µM (read-out: % inhibition IL4) was 83.4%, the inhibition at 0.16 µM (read-out: % inhibition IL13) was 76.3% and the inhibition at 0.63 µM (read-out: % Inhibition CCL17) was 48%. The inhibition at 0.63 µM (read-out: % Inhibition CCL26) was < 0%, the inhibition at 0.63 µM (read-out: % inhibition CCL2) was 34.9% and the inhibition at 0.63 µM (read-out: % inhibition IL4) was ~80%. For the same molecule, the inhibition at 0.63 µM (read-out: % inhibition IL13) was ~84%, the inhibition at 2.5 µM (read-out: % Inhibition CCL17) was 62.3% and the inhibition at 2.5 µM (read-out: % Inhibition CCL26) was < 0%. For the same molecule, the inhibition at 2.5 µM (read-out: % inhibition CCL2) was 76.5%, the inhibition at 2.5 µM (read-out: % inhibition IL4) was 82% and the inhibition at 2.5 µM (read-out: % inhibition IL13) was 90.2%. For the same molecule, the inhibition at 10 µM (10 μM, read-out: % Inhibition CCL17) was ~62%, the inhibition at 10 µM (10 μM, read-out: % Inhibition CCL26) was < 0% and the inhibition at 10 µM (10 μM, read-out: % Inhibition IL31) was 95.4%. For the same molecule, the inhibition at 10 µM (10 μM, read-out: % inhibition IL4) was 74.9%, the inhibition at 10 µM (10 μM, read-out: % inhibition IL13) was 93.3% and the “highest percent inhibition of IL4, IL13, IL31, and CCL2 gene expression” value (Th2-mediated stimulation, compared to stimulated and untreated) was 76-85%. The “inhibition of interleukin IL-4 expression” value [1] was 75%, the “inhibition of interleukin IL-13 expression” value [1] was 93% and the “inhibition of interleukin IL-31 expression” value [1] was 95%. For the same molecule, the “reduction in CXCL10, IL-17a, IL-36γ, IL-4, IL-13 or IL-31 levels” value (human skin induced to exhibit Th2 or Th17 phenotype) was > 75%.
